Experimental data as given in patent publication US20100120013A1, “PROCEDURE FOR LONG TERM CORNEAL CULTURE” (MB RESEARCH LABORATORIES, INC., priority 2008, published 2010).

System: excised cultured porcine corneas
Details: pig, 5 min, 100 %
Description: The toxicological ocular irritation and recovery testing procedure is conducted on excised corneas (53), FIG. 7, according to the following steps. • a) The toxicological ocular irritation and recovery testing procedure begins approximately 24 hours after the corneas are excised. This allows the corneas to be placed in a custom culture media (55) to equilibrate to the culture conditions for 24 hours (57). […] Unsuccessfully treated corneas are discarded (73). • j) The toxicity of the test material is determined by measuring cell vitality, death, or impairment in the cultured corneal tissue via confocal microscopy paired with various vital dyes, whether colored or fluorescent. […]
Also further included is a method for measuring cell death or impairment with NaFL in the cultured corneal tissue according to the following steps. • i) On days “1”, “2”, “3”, “7”, “10”, “14”, and “21” of the toxicological ocular irritation and recovery testing procedure, the percentage of damaged corneal tissue area is determined by staining with 2% sodium fluorescein (NaFL) stain as in the Draize rabbit eye test. • ii) The culture media is examined microscopically throughout the toxicological ocular irritation and recovery testing procedure for presence of contamination.

CCO [ethanol]
time in culture at which dosed corneas no longer retain NaFL stain (recovery): 3 to 10 days
